The test system of data set [1] is disaggregated rat osteoclasts.
Experimental: (§1) Bone resorption assay: Human cortical bone slices were prepared as previously described (Zaidi et al. Quart J.Exp. Physiol. 73, p. 471 (1988). The slices were then cut into pieces, each measuring about 3mm². Newborn Wistar rats were killed by decapitation and their femora and tibiae removed. The bones were freed of adherent soft tissues and cut across their epiphyses in Medium 199 with foetal calf serum (FCS, 10%, v/v) and antibiotics (Flow Laboratories, UK, Ltd.). Osteoclasts were mechanically disaggregated by curetting the bones of each rat with a scalpel blade into Medium 199 (1 ml) and agitating the suspension with a pipette. Large fragments were allowed to settle for 10 seconds, before the supernatant was dropped onto 30 to 35 bone slices placed in a well of a Sterilin 100 18mm multiwell dish. Following incubation (37°C; 15 minutes), the bone slices were removed, washed gently in Minimal Essential Medium with FCS (10%, v/v) (MEM/FCS) and placed in separate wells (each well contained 5-6 slices and 900 µl MEM/FCS). […] After further incubation (37°C, 10% humidified CO₂, 10 minutes), 100 µl of MEM/FCS containing the test substance was added. Finally, bone slices were incubated overnight (37°C, 10% humidified CO₂, 18 hours) and quantified in terms of cell numbers and bone resorption. After fixation in glutaraldehyde, cells were stained with toluidine blue and examined by transmitted light microscopy. In order to rule out toxic effects, osteoclasts were counted on three slices for every variable and their numbers were then compared on hormone-treated and control bone slices. The slices were bleached by immersion in sodium hypochlorite solution (10% v/v) for 30 minutes and dehydrated in aqueous ethanol (80% v/v). The slices were then sputter coated with gold, randomized and examined in a Cambridge 360 Scanning Electron Microscope (Cambridge Instruments, Cambridgeshire). Osteoclastic excavations, each defined by a continuous border within an area of unresorbed bone were counted. The area of bone surface resorbed was calculated by tracing the outline of the concavities into an image processor (Sight Systems, Newbury, Berks).
Data set [2] can be described thus: in vivo rat hypocalcaemia assay: plasma calcium after intravenous injection of the peptide. Details: species or system male Wistar rats. On the procedure: The effects of amylin and deamidated amylin on calcium metabolism in the rat and rabbit were investigated by two different methods. First, in vivo hypocalcaemic activity was assessed by measuring plasma calcium levels after injection of the peptide in 50 g rats. Next, in vitro resorption of cortical bone by disaggregated rat osteoclasts was quantified by scanning electron microscopy together with image analysis. […] Both are inhibitors of osteoclastic resorption and lower plasma calcium in both rats and rabbits. Described below are experiments which show the biological activity of both amylin and deamidated amylin using the in vivo rat hypocalcaemia assay and an in vitro bone resorption system. In addition, the effect on plasma calcium levels of infusion of high doses of amylin into rabbits is described.
Animal experiments: Fifty gram male Wistar rats (mean weight ± SEM, 51 ± 1.2g, Charles Rivers, Margate, Kent) were fasted overnight with ad lib access to water and used for experiments. […] Following injection the animals were bled into heparinized syringes via the dorsal aorta under light ether anaesthesia. In another set of experiments, rabbits (mean weight ± SEM, 3.2 ± 0.3 kg) were restrained in wooden cages and sedated with Hypnorm (1 ml) (Janssen, Denmark). […] Plasma was separated and calcium levels measured by DC Plasma Emission Spectrophotometry.

The nature of data set [3]: plasma calcium after intravenous infusion in patients with Paget's disease. Format: in vivo. On the procedure:
Furthermore, 1 hour of intravenous infusion of 150 pmol/Kg/min amylin into four human patients with Paget's disease reduced plasma calcium by amounts ranging from […].

The next data set deals with isolated osteoclasts. As to the kind of experiment: second messenger pathways and functional responses of isolated osteoclasts. Format: cell-based. From the text:
Thus, it appears that osteoclast activity may be restrained via two receptor types; calcitonin acts at both while amylin acts mainly via only one, reducing motility, reducing resorption and probably acting via the second messenger cAMP (Zaidi et. al. 1990, J. Endocrinol 126, 473-481).

A short description of data set [4]: plasma calcium during and after continuous intravenous infusion into rabbits. The format is in vivo. As to conditions: infusion of 500 pmol per minute over 90 minutes. As to the method:
Animal experiments: Fifty gram male Wistar rats (mean weight ± SEM, 51 ± 1.2g, Charles Rivers, Margate, Kent) were fasted overnight with ad lib access to water and used for experiments. […] Following injection the animals were bled into heparinized syringes via the dorsal aorta under light ether anaesthesia. In another set of experiments, rabbits (mean weight ± SEM, 3.2 ± 0.3 kg) were restrained in wooden cages and sedated with Hypnorm (1 ml) (Janssen, Denmark). They were infused with saline or amylin (500 pmol min ⁻¹) for 90 minutes via a 21 G needle inserted into the lateral ear vein. The needle was connected to a pump via a polythene cannula (Portex, 00, Hythe, Kent). Blood samples were taken at timed intervals before and after the infusion was commenced. Plasma was separated and calcium levels measured by DC Plasma Emission Spectrophotometry.

The subject of data set [5] is disaggregated rat osteoclasts. In words: bone resorption assay: isolated osteoclasts on human cortical bone slices, scanning electron microscopy with image analysis.
Experimental: as §1
Where [6] appears, read: peptides not all compared in the same assay.

The source of these data is EP0408284B1, “Amylin for treatment of bone disorders” (AMYLIN PHARMACEUTICALS, INC., priority 1989, dated 1996).

Like-named read-outs stand apart in the source and are kept apart here. Ends that are not written are not given here. Where only a bound is given, the exact number is not on record here.

Turning to `CC[C@H](C)[C@H](NC(=O)[C@H](C)NC(=O)CNC(=O)[C@H](Cc1ccccc1)NC(=O)[C@H](CC(N)=O)NC(=O)[C@H](CC(N)=O)NC(=O)[C@H](CO)NC(=O)[C@H](CO)NC(=O)[C@H](Cc1c[nH]cn1)NC(=O)[C@@H](NC(=O)[C@H](CC(C)C)NC(=O)[C@H](Cc1ccccc1)NC(=O)[C@H](CC(N)=O)NC(=O)[C@H](C)NC(=O)[C@H](CC(C)C)NC(=O)[C@H](CCCNC(=N)N)NC(=O)[C@H](CCC(N)=O)NC(=O)[C@@H](NC(=O)[C@H](C)NC(=O)[C@@H]1CSSC[C@H](NC(=O)[C@@H](N)CCCCN)C(=O)N[C@@H](CC(N)=O)C(=O)N[C@@H]([C@@H](C)O)C(=O)N[C@@H](C)C(=O)N[C@@H]([C@@H](C)O)C(=O)N1)[C@@H](C)O)C(C)C)C(=O)N[C@@H](CC(C)C)C(=O)N[C@@H](CO)C(=O)N[C@@H](CO)C(=O)N[C@H](C(=O)N[C@@H](CC(N)=O)C(=O)N[C@H](C(=O)NCC(=O)N[C@@H](CO)C(=O)N[C@@H](CC(N)=O)C(=O)N[C@H](C(=O)N[C@@H](Cc1ccc(O)cc1)C(=O)O)[C@@H](C)O)C(C)C)[C@@H](C)O` [deamidated amylin], in data set [1], the “cell number or viability” value is given as “without affecting cell number or viability”.
Turning to “amylin (KCNTATCATQRLANFLVHSSNNFGAILSSTNVGSNTY-NH2; cysteine pairing not given here; UniProt P10997 34-70, looked up)”, the “effect on plasma calcium” value in data set [2] (50 g rats, intravenous injection of 500 pmol) is “marked hypocalcaemia”. In addition, in data set [2] (summary covering the in vivo and the in vitro tests, order: asu1-7-eel CT>human CT>amylin/amylin amide>CGRP), the “responses (hypocalcaemic and anti-resorptive activity) compared with calcitonin and CGRP” value is reported as “less than for calcitonin, but significantly greater than those observed with CGRP”. Besides, the “potency compared with human calcitonin” value in data set [3] was “comparably potent to human calcitonin”. For the same compound, in the data set with isolated osteoclasts, the cell retraction entry is given as “evoked neither of these responses”, the cytosolic calcium result is listed as “evoked neither of these responses” and the osteoclast motility entry was “inhibited osteoclast motility”. In data set [4], the “effect on plasma calcium” value is given as “marked lowering of plasma calcium”, the “time calcium levels continued to fall after the end of the infusion” value stood at 30 min and the “time until a trend to lower plasma calcium was apparent” value was at most 30 min. Further, the “total area of bone resorbed by isolated osteoclasts” value in data set [5] (18 hours incubation, concentration-dependent) is listed as “marked reduction”. The “cell number or viability” value in data set [5] (osteoclasts counted on hormone-treated and control bone slices) is listed as “without affecting cell number or viability”. Also, in data set [5] (setting [6]), the “potency compared with CGRP” value is given as “more potent than CGRP” and the “potency compared with human calcitonin” value is “less potent than human calcitonin by about an order or magnitude”.
With calcitonin [reference compound], in the data set with isolated osteoclasts, the cell retraction entry is “caused cell retraction”, the cytosolic calcium result is “elevated cytosolic calcium” and the osteoclast motility entry is reported as “inhibited osteoclast motility”.
